Data on 1 substance can be found in patent US11865158B2, “Process and composition matter of nanoparticle formulation for systemic treatment of sepsis” (PURDUE RESEARCH FOUNDATION, priority 2019, dated 2024).

One data set relates to J774a.1 macrophages. The data set is described as follows: Cytotoxicity by propidium iodide staining and flow cytometry. In kind it is cell-based. The following applies: equivalent to 50-150 μg/mL PMB, 24 h. The procedure:
As a cationic polypeptide, PMB is known to be effective in neutralizing LPS as early as in 1967, but its systemic application is hampered by dose-limiting nephro- and neurotoxicity. PMB manifests the toxicity via the increased membrane permeability, resulting in increased influx of ions and water and subsequent cell swelling and lysis. To test if the toxicity can be reduced by supplying PMB as a NP-bound form, THP-1 monocytes or J774a.1 macrophages were incubated with D-TZP or free PMB at a concentration equivalent to 50-150 μg/mL PMB for 24 h, stained with propidium iodide (PI), which penetrates damaged cell membrane but not intact membrane, and analyzed with flow cytometry. […] Substantial reduction of membrane damage is attributable to the surface-bound ZWC, which provides a negatively charged cloud beyond the remit of PMB due to the large size, attenuating direct exposure of PMB to cell membrane.
Cytotoxicity of PMB and D-TZP. Cytotoxic concentration range of free PMB was first determined with THP1-XBlue-MD2-CD14 cells by the MTT assay. […] The PI fluorescence of 10,000 cells was measured with the BD Accuri C6 flow cytometer (BD Biosciences, San Jose, CA) via the FL-2 detector. Nanoparticles and cell debris were excluded by gating, but all cell population (dead or alive) was analyzed. […]
On the technique in general: Flow cytometry measures light scatter and fluorescence of single cells or particles in a stream.

A further data set deals with C57BL/6 male mice. In words: In vivo safety. The following applies: dose exceeding its LD50. Here is the method:
D-TZP was intraperitoneally (IP) or intravenously (IV) injected to C57BL/6 male mice at doses equivalent to as high as 40 mg/kg PMB and 10 mg/kg PMB, respectively, much greater than the known IP and IV LD50 values of free PMB (20 mg/kg for IP and 5 mg/kg for IV). […] Higher doses have not been tested; therefore, the maximum tolerated dose of D-TZP in each route could not be defined. […] The increased tolerated dose is consistent with the reduced in vitro toxicity of D-TZP.
In vivo safety. 6-10 week-old C57BL/6 male mice were used to evaluate the safety of D-TZP and TZP in comparison with free PMB. The treatment was administered by IP (2.5-40 mg/kg) or IV (3-10 mg/kg) injection. The body weight changes were monitored daily up to 1 week. For blood chemistry and histology analysis, blood and major organs were collected at 12 h post IV injection of vehicle (5% dextrose), free PMB, D-TZP, or TZP (all equivalent to 10 mg/kg PMB). Animals were sacrificed by CO2 asphyxiation. Blood was obtained by cardiac puncture. Major organs were fixed in 10% formalin, embedded in paraffin, sectioned, and stained with hematoxylin and eosin for histological evaluation. The samples were imaged with a Nikon 90i upright microscope. To evaluate the safety of multiple intravenous injections, 5 mg/kg PMB or 10 mg/kg PMB equivalent D-TZP was given every 2 days up to 4 times total with body weight monitoring over 2 weeks.

Data set [1] has as its system LPS-induced NF-kB/AP-1 activation in THP1-XBlue-MD2-CD14 cells. The data set is described as follows: In vitro anti-LPS activity, SEAP reporter assay, LPS pretreated and supernatant added to cells. It counts as cell-based, human. The following applies: 10 ng/mL LPS, equivalent to PMB 9.5-18.9 μg/mL. The procedure: To investigate if D-TZP can neutralize LPS, a reporter cell line responding to LPS was incubated with LPS and free PMB or D-TZP's (with different amounts of PMB). THP1-XBlue-MD2-CD14, derived from the human monocytic THP-1 cell line, overexpresses MD2 and CD14 to amplify the response to TLR4 agonist LPS. Color change of the Quanti-Blue reagent (NF-kB/AP-1-inducible secreted embryonic alkaline phosphatase (SEAP) reporter protein) reflects NF-kB/AP-1 activation due to LPS. LPS-induced SEAP production was measured at 620 nm. The reporter cells with 10 ng/mL of LPS expressed a high level of SEAP as compared to non-challenged cells. […] A supernatant was obtained from each mixture to separate unbound LPS and added to THP1-XBlue-MD2-CD14 cells.
In vitro anti-LPS activity. Five microliters of LPS ([…]) was mixed with 15 μL of free PMB, D-TZP, or TZP at different concentrations in a flat-bottom 96-well plate. THP1-XBlue-MD2-CD14 cell suspension (10^5 cells in 180 μL) was then added to the mixtures. After 24 h incubation, cells were centrifugated at 233 rcf for 5 min. Twenty microliters of the cell medium was mixed with the Quanti-Blue reagent. After 2 h incubation, the color was measured at 620 nm by a Spectra Max M3 microplate reader (Molecular Devices, Sunnyvale, CA). […] The medium was analyzed in the same manner as above.
(In general: A reporter such as luciferase makes a cellular process visible.)

polymyxin B [PMB]: the “PI fluorescence (membrane damage)” value in the data set on J774a.1 macrophages is recorded as “dose-dependent PI fluorescence signal”. For the same substance, the mortality result in the data set on C57BL/6 male mice is “resulted in mortality”. For the same substance, the “SEAP production, LPS pretreated for 1 h, supernatant added to cells” value in data set [1] is on record as “significant reduction in SEAP production”.
